In patent US4530837A, “Peptide derivatives, their preparation process and their pharmaceutical use” (Commissariat a l'Energie Atomique, priority 1982, dated 1985):

Tests used:
[1] = tested on: hydrochloric acid secretion; assay: hydrochloric acid secretion in anesthetized rats with perfused stomach (Ghosh and Schild, modified by Lai): agonist effect; format: in vivo, rat; details: intravenous injection, male Wistar rats
Experimental: (§1) For the purpose of these tests, use was made of male Wistar rats weighing 300±25 g. The rats were not allowed to take solid food for 18 hours, but were allowed to drink water freely. They were then anesthesized with urethane (1.25 g/kg) by the intramuscular route. The temperature of the rats was maintained at 34° C. by means of lamps, approximately 60 cm away from them. A polyethylene catheter was introduced into the esophagus up to the level of the cardia and a second catheter for collecting the stomach secretion at the duodenum. After washing the stomach, the latter was continuously perfused with a 0.9% sodium chloride solution, at a flow rate of 1 ml/min, using a peristaltic pump connected to the catheter of the esophagus.
(§2) After a period of stabilizing the system lasting approximately 90 minutes after the operation, the compounds which it was wished to study were injected intravenously into the vein of the penis and the gastric secretion was collected by fractions taken every 20 minutes, the interval between these injections being min 90 minutes. The acidity of the sample fractions was dosed by means of a 0.01N sodium solution at the phenolphthalein colour change.

[2] = tested on: hydrochloric acid secretion stimulated by histamine; assay: inhibition of secretion plateau stimulated by histamine in anesthetized perfused-stomach rats; format: in vivo, rat; details: 150 nmol/kg i.v., histamine 13.5 μmol/kg/h
Experimental: as §1, §2
In this case, use is made of the same operating procedure as in the second group of experiments, by stimulating the secretion by histamine. In this case, a higher histamine dose (13.5 μmol/kg/h) is injected.

| Compound | dose from which activity on hydrochloric acid secretion is maximum [1] | duration of inhibition of the histamine response [2] | inhibition of the histamine response (intensity) [2] | maximum inhibition percentage (mean ± ESM) ([2]; group of 4 rats) |
| --- | --- | --- | --- | --- |
| CSCC[C@H](NC(=O)[C@H](Cc1c[nH]c2ccccc12)NC(=O)CCNC(=O)OC(C)(C)C)C(=O)N[C@@H](CC(=O)O)C(=O)N[C@@H](Cc1ccccc1)C(N)=O [pentagastrin, Boc-βAla-Trp-Met-Asp-Phe-NH2] | ≥ 20 nmol/kg | – | – | – |
| CN/C(=N\CCSCc1nc[nH]c1C)NC#N [cimetidine] | – | approximately 3 h | approximately 55% | 54.4±2.7% |
